Reference: US20150017673A1, “COMPOSITIONS AND METHODS FOR DRUG-SENSITIZATION OR INHIBITION OF A CANCER CELL” (priority 2012, published 2015)
Where “and” joins values, the source holds several entries; their conditions need not be identical. Identical values can stand only once.

Key:
[1] = system: multi-drug resistant sarcoma cell line MES-SA-Dx5; test: Cell growth assay on MES-SA-Dx5 cells; format: cell-based; settings: MES-SA-Dx5, uterus sarcoma
Description: Compositions were tested on CHOP-resistant G3 NHL cells that had been cultivated in RPMI medium for five days. Prior to assay, the cells were counted by haemocytometer and cell concentration standardized to 625,000 cells/ml. Test drugs were solubilized in 100% DMSO and then diluted to final assay concentration with 0.1M phosphate buffered saline (PBS) and a final DMSO concentration of 0.5%. Cells were added to assay plates containing the test drugs (rifabutin+148 ng/ml, 74 ng/ml, 37 ng/ml, or 0 ng/ml doxorubicin) and allowed to incubate for 96 hours at 37° C. and 5% CO2. The metabolic dye rezasurin was added to the wells of the assay plate at a final concentration of 20 μg/ml and the plates were incubated for an additional 24 hours. The plates were then read in a BMG Polarstar plate reader at wavelength (573-605) and the data plotted as OD versus increasing dilutions (i.e. decreasing total amounts) of rifabutin derivative concentration.
In these experiments, the following cell lines were used: CHOP-resistant NHL cell line G3, CHOP-sensitive NHL cell line CRL2631, the multi-drug resistant sarcoma cell line MES-SA-Dx5; multi-drug-resistant breast cancer cell line MDA-MB-231, multi-drug resistant ovarian carcinoma cell line SK-OV3, multi-drug resistant ovarian cancer cell line NCI/ADR-RES, drug-sensitive ovarian cancer cell line OVCAR-5, and multi-drug resistant ovarian cancer cell line OVCAR-3.
Additional cell lines used include: ovarian cancer OVCAR-8, T lymphoblastoid leukemia MOLT-4, dexamethasone-resistant multiple myeloma MM.1R, myeloid leukemia cells HL-60, osteosarcoma cells U-2 OS, and myeloma RPMI 8226.

[2] = system: lymphoma aspirate from a dog with CHOP-resistant lymphoma; test: CHOP responsiveness of dog lymphoma aspirate (resazurin); format: cell-based
Description: A single lymphoma aspirate from a dog with CHOP-resistant lymphoma was tested for responsiveness to CHOP in the presence or absence of rifabutin. CHOP-responsiveness was measured by a decrease in fluorescence signal generated by resazurin.

[3] = system: human ovarian cancer cell line SK-OV-3; test: SK-OV-3 xenograft efficacy study in SCID mice; format: in vivo
Description: In a fifth efficacy study, we generated xenografts of the human ovarian cancer cell line SK-OV-3, a cell line considered doxorubicin-resistant, by bilateral subcutaneous (s.c.) injection of 1×10^7 tumor cells to establish localized tumors in 6-8 week old female SCID mice. Using rifabutin co-administered with DOX, in vivo efficacy was assessed. […] Cycles of Dox or Dox+rifabutin were given once a week for 4 cycles. This cyclical dosing scheme of mouse models has precedent in the literature and is intended to mimic the cycles of DOXIL® (Centocor Ortho Biotech Products, LP, Raritan, N.J.) given in the clinic. Rifabutin was administered on the day of each DOX treatment and by gavage. Mouse body weight and tumor size were monitored.

ROS in G3 lymphoma cells = test: Intracellular ROS (CellROX, flow cytometry) in G3 cells; format: cell-based, human; settings: 10 uM rifabutin over time
G3 cells [4] = test: Collagen invasion 3D assay, G3 cells; format: cell-based, human; settings: 10 uM Rifabutin in collagen matrix, 24 hours
Description: (§1) The effects of rifabutin on cell invasion was assessed in a collagen invasion 3D assay. Increased interest in the use of 3D culture systems has been motivated by accumulating evidence that 3D models better reflect the microenvironment of tumors and metastases and more accurately predict therapeutic response in vivo compared with conventional 2D assays. A collagen invasion 3D assay allows the rapid and quantitative assessment of invasiveness and a means to screen for drugs which alter the invasive phenotype of tumor cells.
(§2) The CHOP-resistant G3 cell line is much more invasive in a collage invasion 3D assay than its CHOP-sensitive parent cell line (CRL2631). Collagen matrices (1 mg/ml) were prepared as previously described in Su, S. C., et al., Molecular profile of endothelial invasion of three-dimensional collagen matrices: insights into angiogenic sprout induction in wound healing. Am. J. Physiol. […] Cell invasion density was quantified by counting fixed cultures under transmitted light using an Olympus CK2 inverted microscope equipped with eyepieces displaying a 10×10 ocular grid. For each condition, four random fields were selected and the number of invading cells per high power field (HPF) was counted manually at 10× magnification, corresponding to 1 mm^2 area. […]

CRL2631 cells = test: Collagen invasion 3D assay, CRL2631 cells; format: cell-based, human; settings: 10 uM Rifabutin in collagen matrix, 24 hours
Description: as §1, §2

G3 cells [5] = test: Modified Boyden chamber invasion assay, G3 cells; format: cell-based, human; settings: 10 μM rifabutin 24 hours; DMSO 170,374
Description: A modified Boyden chamber assay was used as an independent method to evaluate rifabutin's ability to suppress invasion/metastasis. […] Cell invasion was assessed with a Chemicon QCM Collagen Invasion Assay (Millipore). The assay is a 96-well plate assay wherein each well is equipped with a suspended insert. Inserts contain an 8-micron membrane coated with a thin layer of polymerized collagen. Invading cells migrate through the collagen layer and attach to the bottom of the membrane. Cells were detached from the membrane and lysed prior to detection via CyQuant dye. Fluorescence intensity is proportional to number of invading cells. […] In CRL2631 cells RLU decreases from 39,356 to 27,432 RLU in the presence of rifabutin (p<0.05).

[6] = system: primary human fibroblasts; settings: with and without 2 uM Dox
ABCB1 pumps = ABCB1 pumps (Homo sapiens, UniProt P08183); settings: NCI/ADR-RES and G3 cells
ABCB1 pumps, sequence (P08183 whole entry): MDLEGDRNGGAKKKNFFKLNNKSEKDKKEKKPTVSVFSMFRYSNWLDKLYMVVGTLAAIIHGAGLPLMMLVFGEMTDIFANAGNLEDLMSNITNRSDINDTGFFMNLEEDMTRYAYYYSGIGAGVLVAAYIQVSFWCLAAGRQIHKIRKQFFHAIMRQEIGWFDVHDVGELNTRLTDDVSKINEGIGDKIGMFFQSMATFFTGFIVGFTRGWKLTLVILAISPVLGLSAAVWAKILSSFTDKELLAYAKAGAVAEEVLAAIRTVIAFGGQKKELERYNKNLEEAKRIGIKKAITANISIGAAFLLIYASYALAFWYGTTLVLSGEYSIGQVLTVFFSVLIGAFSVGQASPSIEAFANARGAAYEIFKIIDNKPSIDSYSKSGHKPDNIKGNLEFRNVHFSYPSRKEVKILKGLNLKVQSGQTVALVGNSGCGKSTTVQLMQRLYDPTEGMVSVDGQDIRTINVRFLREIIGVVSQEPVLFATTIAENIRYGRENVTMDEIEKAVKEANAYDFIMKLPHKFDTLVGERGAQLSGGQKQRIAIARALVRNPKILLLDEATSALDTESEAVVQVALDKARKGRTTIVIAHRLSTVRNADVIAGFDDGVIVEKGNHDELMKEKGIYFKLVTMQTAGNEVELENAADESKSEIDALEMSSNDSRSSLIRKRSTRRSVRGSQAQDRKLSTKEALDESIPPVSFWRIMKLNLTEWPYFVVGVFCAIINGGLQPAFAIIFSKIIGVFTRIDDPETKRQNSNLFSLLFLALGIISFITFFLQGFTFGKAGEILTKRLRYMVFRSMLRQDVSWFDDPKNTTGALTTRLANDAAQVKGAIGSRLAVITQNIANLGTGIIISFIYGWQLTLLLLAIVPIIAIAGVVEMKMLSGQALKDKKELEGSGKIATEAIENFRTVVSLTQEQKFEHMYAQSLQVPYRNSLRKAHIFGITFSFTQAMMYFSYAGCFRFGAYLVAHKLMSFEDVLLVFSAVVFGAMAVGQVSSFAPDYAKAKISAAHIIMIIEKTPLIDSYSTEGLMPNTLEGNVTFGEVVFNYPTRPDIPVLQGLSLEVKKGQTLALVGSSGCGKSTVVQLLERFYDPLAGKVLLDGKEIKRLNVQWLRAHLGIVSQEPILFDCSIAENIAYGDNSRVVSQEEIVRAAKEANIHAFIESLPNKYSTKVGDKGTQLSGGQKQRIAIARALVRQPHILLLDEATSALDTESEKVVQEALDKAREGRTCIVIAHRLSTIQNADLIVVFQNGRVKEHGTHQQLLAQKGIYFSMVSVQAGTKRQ

[7] = cited from earlier work

## CO[C@H]1/C=C/O[C@@]2(C)Oc3c(C)c(O)c4c(c3C2=O)C2=NC3(CCN(CC(C)C)CC3)NC2=C(NC(=O)/C(C)=C\C=C\[C@H](C)[C@H](O)[C@@H](C)[C@@H](O)[C@@H](C)[C@H](OC(C)=O)[C@@H]1C)C4=O [Rifabutin, rifabutin]
[1]
  Magnitude of potentiation in combination with doxorubicin: ++ (potentiation between 2.1 to 5 fold increase)
[2]; CHOP with 5 μM rifabutin
  CHOP dose giving significant growth inhibition: 320 ng/mL and 640 ng/mL
[2]; rifabutin alone
  cell viability in the absence of CHOP: no effect on cell viability
[3]; after 19 days treatment, DOX 3.3 mg/kg i.v. + rifabutin 25 mg/kg oral weekly
  average tumor volume: 348 mm^3
[3]; after 19 days, DOX 3.3 mg/kg i.v. + rifabutin 25 mg/kg oral
  reduction in tumor size versus DOX-only: 40%
ROS in G3 lymphoma cells
  ROS induction: rapidly induces ROS
G3 cells [4]
  reduction of invasion: up to 30%
CRL2631 cells
  reduction of invasion: Less of this effect
G3 cells [5]
  relative fluorescence (invading cells): 114,395 RLU
[6]
  comparative cytotoxicity to normal cells: not toxic to normal cells
ABCB1 pumps
  inhibition of efflux pumps: clear inhibition of efflux pumps
[7]; biphasic plasma elimination
  initial half-life: approximately 4 hours
  mean terminal half-life: 45 (±17) hours
[7]; single oral dose of 300 mg
  mean (±SD) peak plasma concentration (Cmax): 375 (±267) ng/mL
